Reference: patent US20070135431A1, “INHIBITORS OF HISTONE DEACETYLASE FOR THE TREATMENT OF DISEASE” (KALYPSYS, INC, priority 2005, published 2007)

Assays:
HDAC = assay: In vitro HDAC-inhibition assay (Fluor de Lys fluorescent activity assay); type: biochemical; details: HDAC enzyme source (e.g. nuclear extract or immunopurified HDAC complexes), Fluor de Lys substrate, 30 minutes RT
Procedure: 1) In vitro HDAC-inhibition Assay:
This assay measures a compound's ability to inhibit acetyl-lysine deacetylation in vitro and was used as both a primary screening method as well as for IC50 determinations of confirmed inhibitors. The assay is performed in vitro using an HDAC enzyme source (e.g. partially purified nuclear extract or immunopurified HDAC complexes) and a proprietary fluorescent substrate/developer system (HDAC Quantizyme Fluor de Lys Fluorescent Activity Assay, BIOMOL). The assay is run in 1,536-well Greiner white-bottom plates using the following volumes and order of addition: • Step 1: Enzyme (2.5 μL) source added to plate (from refrigerated container) • Step 2: Compounds (50 nL) added with pin transfer device • Step 3: Fluor de Lys (2.5 μL) substrate added, incubate at RT, 30 minutes • Step 4: Developer (5 μL) solution is added (containing TSA), to stop reaction • Step 5: Plate Reader—data collection
The deacetylated fluorophore is excited with 360 nm light and the emitted light (460 nm) is detected on an automated fluorometric plate reader (Aquest, Molecular Devices).

HDAC in cells = assay: Cellular HDAC inhibition (cellular histone hyperacetylation / cytotoxicity assays; Table 1 only says Cellular IC50); type: cell-based; details: transformed cell lines (e.g. HeLa, A549, MCF-7); cell line not given
Procedure: 2) Cellular Histone Hyperacetylation Assays:
These two secondary assays evaluate a compound's ability to inhibit HDAC in cells by measuring cellular histone acetylation levels. The cytoblot facilitates quantitative EC50 information for cellular HDAC inhibition. Transformed cell lines (e.g. HeLa, A549, MCF-7) are cultured under standard media and culture conditions prior to plating.
Cells (approx. 2,500/well) are allowed to adhere 10-24 hours to wells of a 384-well Greiner PS assay plate in media containing 1-5% serum. Cells are treated with appropriate compound and specific concentrations for 0 to 24 hours. Cells are washed once with PBS (60 μL) and then fixed (95% ethanol, 5% acetic acid or 2% PFA) for 1 minute at RT (30 μL). Cells are blocked with 1% BSA for 1 hour and washed and stained with antibody (e.g. anti-Acetylated Histone H3, Upstate Biotechnology), followed by washing and incubation with an appropriate secondary antibody conjugated to HRP or fluorophore. For luminescence assays, signal is generated using Luminol substrate (Santa Cruz Biotechnology) and detected using an Aquest plate reader (Molecular Devices).
3) Differential Cytotoxicity Assay:
HDAC inhibitors display differential cytotoxicity toward certain transformed cell lines. Cells are cultured according to standard ATCC recommended conditions that are appropriate to each cell type. Compounds were tested for their ability to kill different cell types (normal and transformed) using the ATPlite luminescence ATP detection assay system (Perkin Elmer). Assays are run in either 384-well or 1536-well Greiner PS plates. Cells (30 μL or 5 μL, respectively) are dispensed using either multichannel pipette for 384-well plates, or proprietary Kalypsys bulk liquid dispenser for 1536-well plates. Compounds added using proprietary pin-transfer device (500 nL or 5 nL) and incubated 5 to 30 hours prior to analysis. Luminescence is measured using Aquest plate reader (Molecular Devices).

| SMILES | IC50 (HDAC) | IC50 (HDAC in cells) |
| --- | --- | --- |
| CC(=O)SCC(=O)c1ccc(NS(=O)(=O)c2ccc(Oc3ccccc3C)cc2)cc1 [Example 01, Thioacetic acid S-{2-oxo-2-[4-(4-o-tolyloxy-benzenesulfonylamino)-phenyl]-ethyl} ester] | ≤ 1000 nM | ≤ 1000 nM |
| CC(=O)SCC(=O)c1ccc(NS(=O)(=O)c2ccc(Oc3ccccc3)cc2)cc1 [Example 03, Thioacetic acid S-{2-oxo-2-[4-(4-phenoxy-benzenesulfonylamino)-phenyl]-ethyl} ester] | ≤ 1000 nM | ≤ 1000 nM |
| CC(=O)SCC(=O)c1ccc(NS(=O)(=O)c2ccc(Oc3ccc(Cl)cc3)cc2)cc1 [Example 04, Thioacetic acid S-(2-{4-[4-(4-chloro-phenoxy)-benzenesulfonylamino]-phenyl}-2-oxo-ethyl) ester] | ≤ 1000 nM | ≤ 1000 nM |
| CC(=O)SCC(=O)c1ccc(NS(=O)(=O)c2ccc(S(=O)(=O)N3CCOCC3)cc2)cc1 [Example 05, Thioacetic acid S-(2-{4-[4-(morpholine-4-sulfonyl)-benzenesulfonylamino]-phenyl}-2-oxo-ethyl) ester] | ≤ 1000 nM | ≤ 1000 nM |
| CC(=O)SCC(=O)c1ccc(NS(=O)(=O)c2ccc(CN3CCOCC3)cc2)cc1 [Example 07, Thioacetic acid S-{2-[4-(4-morpholin-4-ylmethyl-benzenesulfonylamino)-phenyl]-2-oxo-ethyl} ester] | ≤ 1000 nM | ≤ 1000 nM |
| CC(=O)SCC(=O)c1ccc(NS(=O)(=O)c2ccc(NCc3ccccn3)cc2)cc1 [Example 08, Thioacetic acid S-[2-oxo-2-(4-{4-[(pyridin-2-ylmethyl)-amino]-benzenesulfonylamino}-phenyl)-ethyl] ester] | ≤ 1000 nM | ≤ 1000 nM |
| CC(=O)SCC(=O)c1ccc(NS(=O)(=O)c2ccc(OC3CCN(C)CC3)cc2)cc1 [Example 10, Thioacetic acid S-(2-{4-[4-(1-methyl-piperidin-4-yloxy)-benzenesulfonylamino]-phenyl}-2-oxo-ethyl) ester] | ≤ 1000 nM | ≤ 1000 nM |
| CC(=O)SCC(=O)c1ccc(NS(=O)(=O)c2ccc(OCCCN3CCOCC3)cc2)nc1 [Example 11, Thioacetic acid S-(2-{6-[4-(3-morpholin-4-yl-propoxy)-benzenesulfonylamino]-pyridin-3-yl}-2-oxo-ethyl) ester] | ≤ 1000 nM | ≤ 1000 nM |
| CC(=O)SCC(=O)c1ccc(NS(=O)(=O)c2ccc(OCCCN3CCOCC3)cc2)cc1 [Example 12, Thioacetic acid S-(2-{4-[4-(3-morpholin-4-yl-propoxy)-benzenesulfonylamino]-phenyl}-2-oxo-ethyl) ester] | ≤ 1000 nM | ≤ 1000 nM |
| CC(=O)SCC(=O)c1ccc(NS(=O)(=O)c2ccc(OCCCCc3ccccc3)cc2)cc1 [Example 13, Thioacetic acid S-(2-oxo-2-{4-[4-(4-phenyl-butoxy)-benzenesulfonylamino]-phenyl}-ethyl) ester] | ≤ 1000 nM | ≤ 1000 nM |
| CC(=O)SCC(=O)c1ccc(NS(=O)(=O)c2ccc(OCCCCc3ccccc3)cc2)nc1 [Example 14, Thioacetic acid S-(2-oxo-2-{6-[4-(4-phenyl-butoxy)-benzenesulfonylamino]-pyridin-3-yl}-ethyl) ester] | ≤ 1000 nM | ≤ 1000 nM |
| CC(=O)SCC(=O)c1ccc(NS(=O)(=O)c2ccc(OCc3ccccn3)cc2)cc1 [Example 15, Thioacetic acid S-(2-oxo-2-{4-[4-(pyridin-2-ylmethoxy)-benzenesulfonylamino]-phenyl}-ethyl) ester] | ≤ 1000 nM | ≤ 1000 nM |
| CC(=O)SCC(=O)c1ccc(NS(=O)(=O)c2ccc(OCCCc3cccnc3)cc2)cc1 [Example 16, Thioacetic acid S-(2-oxo-2-{4-[4-(3-pyridin-3-yl-propoxy)-benzenesulfonylamino]-phenyl}-ethyl) ester] | ≤ 1000 nM | > 1000 nM |

Further lines, with some results ahead:

| IC50 (HDAC) | SMILES | IC50 (HDAC in cells) |
| --- | --- | --- |
| ≤ 1000 nM | CC(=O)SCC(=O)c1ccc(NS(=O)(=O)c2ccc(OCCCc3ccccn3)cc2)cc1 [Example 17, Thioacetic acid S-(2-oxo-2-{4-[4-(3-pyridin-2-yl-propoxy)-benzenesulfonylamino]-phenyl}-ethyl) ester] | ≤ 1000 nM |
| ≤ 1000 nM | CC(=O)SCC(=O)c1ccc(NS(=O)(=O)c2ccc(OCCc3ccccn3)cc2)nc1 [Example 18, Thioacetic acid S-(2-oxo-2-{6-[4-(2-pyridin-2-yl-ethoxy)-benzenesulfonylamino]-pyridin-3-yl}-ethyl) ester] | ≤ 1000 nM |
| ≤ 1000 nM | CC(=O)SCC(=O)c1ccc(NS(=O)(=O)c2ccc(OCCN3CCCCC3)cc2)cc1 [Example 19, Thioacetic acid S-(2-oxo-2-{4-[4-(2-piperidin-1-yl-ethoxy)-benzenesulfonylamino]-phenyl}-ethyl) ester] | ≤ 1000 nM |
| ≤ 1000 nM | CC(=O)SCC(=O)c1ccc(NS(=O)(=O)c2ccc(OCCN3CCOCC3)cc2)cc1 [Example 20, Thioacetic acid S-(2-{4-[4-(2-morpholin-4-yl-ethoxy)-benzenesulfonylamino]-phenyl}-2-oxo-ethyl) ester] | ≤ 1000 nM |
| ≤ 1000 nM | CC(=O)SCC(=O)c1ccc(NS(=O)(=O)c2ccc(OCCc3ccccn3)cc2)cc1 [Example 21, Thioacetic acid S-(2-oxo-2-{4-[4-(2-pyridin-2-yl-ethoxy)-benzenesulfonylamino]-phenyl}-ethyl) ester] | ≤ 1000 nM |
| ≤ 1000 nM | CC(=O)SCC(=O)c1ccc(NS(=O)(=O)c2ccc(OCCCN3CCCCC3)cc2)cc1 [Example 22, Thioacetic acid S-(2-oxo-2-{4-[4-(3-piperidin-1-yl-propoxy)-benzenesulfonylamino]-phenyl}-ethyl) ester] | ≤ 1000 nM |
| ≤ 1000 nM | CC(=O)SCC(=O)c1ccc(NS(=O)(=O)c2ccc(OCc3ccccn3)cc2)nc1 [Example 23, Thioacetic acid S-(2-oxo-2-{6-[4-(pyridin-2-ylmethoxy)-benzenesulfonylamino]-pyridin-3-yl}-ethyl) ester] | ≤ 1000 nM |
| ≤ 1000 nM | CC(=O)SCC(=O)c1ccc(NS(=O)(=O)c2ccc(OCCN3CCCCC3)cc2)nc1 [Example 24, Thioacetic acid S-(2-oxo-2-{6-[4-(2-piperidin-1-yl-ethoxy)-benzenesulfonylamino]-pyridin-3-yl}-ethyl) ester] | ≤ 1000 nM |
| ≤ 1000 nM | CC(=O)SCC(=O)c1ccc(NS(=O)(=O)c2ccc(OCCCN3CCCCC3)cc2)nc1 [Example 25, Thioacetic acid S-(2-oxo-2-{6-[4-(3-piperidin-1-yl-propoxy)-benzenesulfonylamino]-pyridin-3-yl}-ethyl) ester] | ≤ 1000 nM |
| ≤ 1000 nM | CC(=O)SCC(=O)c1ccc(NS(=O)(=O)c2ccc(OCCN3CCCC3)cc2)nc1 [Example 26, Thioacetic acid S-(2-oxo-2-{6-[4-(2-pyrrolidin-1-yl-ethoxy)-benzenesulfonylamino]-pyridin-3-yl}-ethyl) ester] | ≤ 1000 nM |
| ≤ 1000 nM | CC(=O)SCC(=O)c1ccc(NS(=O)(=O)c2ccc(OCc3cccnc3)cc2)nc1 [Example 27, Thioacetic acid S-(2-oxo-2-{6-[4-(pyridin-3-ylmethoxy)-benzenesulfonylamino]-pyridin-3-yl}-ethyl) ester] | ≤ 1000 nM |
| ≤ 1000 nM | CC(=O)SCC(=O)c1ccc(NS(=O)(=O)c2ccc(OCCCc3ccccn3)cc2)nc1 [Example 28, Thioacetic acid S-(2-oxo-2-{6-[4-(3-pyridin-2-yl-propoxy)-benzenesulfonylamino]-pyridin-3-yl}-ethyl) ester] | ≤ 1000 nM |
| ≤ 1000 nM | CC(=O)SCC(=O)c1ccc(NS(=O)(=O)c2ccc(OC3CCN(C)CC3)cc2)nc1 [Example 29, Thioacetic acid S-(2-{6-[4-(1-methyl-piperidin-4-yloxy)-benzenesulfonylamino]-pyridin-3-yl}-2-oxo-ethyl) ester] | ≤ 1000 nM |
| ≤ 1000 nM | CC(=O)SCC(=O)c1ccc(NS(=O)(=O)c2ccc(OC3CCCN(C)C3)cc2)nc1 (stereo not drawn) [Example 30, Thioacetic acid S-(2-{6-[4-(1-methyl-piperidin-3-yloxy)-benzenesulfonylamino]-pyridin-3-yl}-2-oxo-ethyl) ester] | ≤ 1000 nM |
